# Data as given in PMC9890698 (BMC Biology, 2023).
# Values joined by “and” are separate entries in the source; they are usually repeats but may differ in a detail not shown here. Identical values can stand only once. *1 amine or outer side, *2 acyl side, *3 side chain or, on linkers, in order; H or OH if unused. Where a SMILES comes first, the peptide text is derived from it. Bridges are numbered along the chain shown (N, C = ends). [ ]: non-standard residue; d: D form. The star is where a group is joined. Leu(3R-OH,Nα-propionyl) = CCC(=O)N[C@H](C(=O)*)[C@H](O)C(C)C; X1 = CC(C)[C@@H](O[*:3])[C@H](N[*:1])C(=O)[*:2]; NMeT = CN[C@H](C(=O)O)[C@@H](C)O; dPhLac = O=C(O)[C@H](O)Cc1ccccc1; NMeA = CN[C@@H](C)C(=O)O; NMeDha = C=C(NC)C(=O)O
# Experiments:
# P2Y12-R = conditions: result in words; cited from earlier work
# washed human platelets = conditions: TRAP stimulation, result in words
# Procedure: For platelet dense granule secretion, washed human platelets were stimulated with 50 μM TRAP (10 min, 37 °C) and stained with conjugated anti-CD63 FITC-conjugated antibody (BD Biosciences reference 557288. 1:5) for 15 min at room temperature. The platelets were then diluted into 1 mL PBS and samples were then kept in the dark until analysis by flow cytometry. The results are expressed as median fluorescence intensity (MFI).
# Human P2Y1-R = biological target: T1, Human P2Y1-R (Homo sapiens, UniProt P47900); test: IP1 accumulation assay (HTRF) in HEK293T cells expressing P2Y1-R; assay type: cell-based; conditions: ADP 100 μM, MRS2179 10 μM, Gq inhibitor 100 nM, 2 h, result in words
# T1 construct: expressed in transfected cells; host or cells: HEK293T/17
# [1] = test system: washed murine platelets (P2Y1-R/Gαq signaling); test: IP1 accumulation assay (HTRF) in washed murine platelets; assay type: cell-based, mouse; conditions: Gq inhibitor 100 nM, 2 h
# Procedure: (§1) As performed in HEK293T cells, we thus quantified intracellular IP1 levels to monitor Gαq protein-dependent signaling pathways.
# Platelet-rich plasma (PRP) was obtained by mixing blood with 1 volume of modified Hepes Tyrode’s buffer (137 mM NaCl, 2 mM KCl, 12 mM NaHCO3, 0.3 mM NaH2PO4, 1 mM MgCl2, 2 mM CaCl2, 5.5 mM glucose, 5 mM HEPES, and 0.35% (w/v) BSA, pH 6.7) followed by a centrifugation at 150 g for 2 min at 37 °C. Then, platelets were pelleted by centrifugation at 1000 g for 4 min, resuspended in modified Hepes Tyrode’s buffer (pH 7.4), adjusted to 3.10^8 platelets/mL in the presence of 0.02 U/mL of apyrase and 10 μM indomethacin and rested for 45 minutes at 37°C before platelet stimulation. PGI2 (0.5 μM) was added before centrifugation steps to avoid platelet activation.
# (§2) Quantification of intracellular IP1 was performed using the HTRF (Homogeneous Time Resolved Fluorescence) IP1 competitive immunoassay (IP-One Tb kit. Cisbio. France) according to the manufacturer’s instructions. Briefly, 20,000 HEK293T/17 cells or 3.10^6 platelets were distributed in a 384-well white microplate (Greiner) and incubated with the indicated molecules for 30 min or 2 h at 37 °C in the presence of 50 mM of LiCl to prevent IP1 degradation. After addition of d2-labeled IP1 (acceptor) and anti-IP1-Cryptate (donor) for 1 h, the specific FRET signals were calculated by the fluorescence ratio of the acceptor and donor emission signal (665/620 nm) collected using a modified Infinite F500 (Tecan Group Ltd). Conversion of the HTRF ratio of each sample into IP1 concentrations was performed on the basis of a standard curve to determine the linear dynamic range of the assay.
# HEK293T cells (pcDNA3.1) = test: IP1 accumulation assay (HTRF) in control HEK293T cells (pcDNA3.1); assay type: cell-based, Human; conditions: pcDNA3.1, Gq inhibitor 100 nM, 2 h
# Description: Since Gαq protein activation is known to induce PLC activation leading to IP3 and subsequent cytosolic calcium release, we analyzed the constitutive Gαq-dependent P2Y1-R signaling by quantifying intracellular inositol monophosphate (IP1) using a monoclonal antibody-based competitive ELISA. IP1 is a downstream metabolite of IP3 that accumulates in cells following Gαq protein-coupled receptor activation, making it an ideal readout for Gαq protein-dependent signaling pathways.
# as §2
# [2] = test system: washed human platelets (P2Y1-R/Gαq signaling); test: IP1 accumulation assay (HTRF) in washed human platelets; assay type: cell-based; conditions: Gq inhibitor 100 nM, 2 h
# Procedure: as §1
# Human platelets were prepared from adult healthy volunteers free of antiplatelet or anti-inflammatory medication since at least ten days. […] After two steps of centrifugation and suspension in Tyrode’s buffer (140 mM NaCl, 5 mM KCl, 5 mM KH2PO4, 1 mM MgSO4, 10 mM HEPES, 5 mM glucose and 0.35% (w/v) BSA, pH 6,7), washed platelets were suspended in the same buffer adjusted to pH 7.4 and containing 1 mM CaCl2. The final platelet suspension was adjusted to 3.10^8 platelets/mL and rested for 45 min in the presence of 0.02 U/mL apyrase and 10 μM indomethacin at 37 °C prior experiments. PGI2 (0.5 μM) was added before centrifugation steps to avoid platelet activation.
# as §2
# T1 sequence (P47900 whole entry): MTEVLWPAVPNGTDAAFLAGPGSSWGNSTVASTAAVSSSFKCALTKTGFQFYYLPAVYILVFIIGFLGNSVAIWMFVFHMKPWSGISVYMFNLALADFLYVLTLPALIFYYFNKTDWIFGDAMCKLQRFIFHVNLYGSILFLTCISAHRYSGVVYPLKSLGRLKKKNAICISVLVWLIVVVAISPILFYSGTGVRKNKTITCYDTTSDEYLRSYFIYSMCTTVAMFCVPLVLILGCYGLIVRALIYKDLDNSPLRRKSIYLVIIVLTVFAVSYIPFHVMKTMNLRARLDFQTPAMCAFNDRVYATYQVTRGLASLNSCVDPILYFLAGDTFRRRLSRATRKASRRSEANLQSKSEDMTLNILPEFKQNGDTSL
compound,measurement,setting,value
CCCSc1nc(N[C@@H]2C[C@H]2c2ccc(F)c(F)c2)c2nnn([C@@H]3C[C@H](OCCO)[C@@H](O)[C@H]3O)c2n1 [ticagrelor],Behaviour at P2Y12-R constitutive signaling,P2Y12-R,inverse agonists
thrombin receptor activating peptide [TRAP],CD63 exposure at the platelet surface,washed human platelets,strong exposure of CD63
"C=C1C(=O)N[C@@H](C)C(=O)N(C)[C@@H](C)C(=O)N[C@@H]([C@H](OC(=O)[C@@H](NC(=O)CC)[C@H](O)C(C)C)C(C)C)C(=O)N(C)[C@@H]([C@@H](C)OC)C(=O)O[C@H](C(C)C)[C@H](NC(C)=O)C(=O)O[C@H](Cc2ccccc2)C(=O)N1C [FR900359] (Ac-[X1][dPhLac][NMeDha]A[NMeA][X1](Leu(3R-OH,Nα-propionyl))[NMeT](Me); ester 1-C)",Effect on IP1 production,Human P2Y1-R,significantly reduced
same,IP1 concentration (% matched basal values),"[1]; murine platelets, individual mice",27.5986 % matched basal values and 38.7127 % matched basal values and 47.9185 % matched basal values and 40.8858 % matched basal values and 59.9249 % matched basal values and 76.9346 % matched basal values and 9.098 % matched basal values and 14.2482 % matched basal values and 23.5315 % matched basal values and 11.8913 % matched basal values and 61.9938 % matched basal values and 36.9021 % matched basal values and 16.0009 % matched basal values
same,Effect on IP1 levels,"[1]; washed murine platelets, ADP 100 μM, MRS2179 10 μM, apyrase 0.02 U/mL, result in words",inhibited
same,IP1 concentration,HEK293T cells (pcDNA3.1),132.385 nM and 158.041 nM and 95.7319 nM and 85.9635 nM and 143.254 nM
same,IP1 concentration (% matched basal values),"[2]; human platelets, individual donors",19.0758 % matched basal values and 11.9666 % matched basal values and 43.5394 % matched basal values and 60.8621 % matched basal values and 37.3209 % matched basal values and 49.8124 % matched basal values and 75.4834 % matched basal values and 64.9734 % matched basal values and 85.7248 % matched basal values and 88.8134 % matched basal values and 81.06 % matched basal values and 83.4552 % matched basal values and 77.0271 % matched basal values and 36.4555 % matched basal values and 43.6521 % matched basal values and 9.5459 % matched basal values
same,Effect on IP1 levels,"[2]; washed human platelets, ADP 100 μM, antagonists 10 μM, apyrase 0.02 U/mL, result in words",inhibited
CSCCNc1nc(SCCC(F)(F)F)nc2c1ncn2[C@@H]1O[C@H](COP(=O)(O)OP(=O)(O)C(Cl)(Cl)P(=O)(O)O)[C@@H](O)[C@H]1O [cangrelor],Behaviour at P2Y12-R constitutive signaling,P2Y12-R,inverse agonists
CCCCOC(=O)N1CCN(C(=O)[C@H](CP(=O)(O)O)NC(=O)c2cc(N3CC[C@H](OC)C3)nc(-c3ccccc3)n2)CC1 [selatogrel],Behaviour at P2Y12-R constitutive signaling,P2Y12-R,inverse agonists
